Target: T1, Anaplastic lymphoma kinase (ALK) (Homo sapiens, UniProt Q9UM73)
T1 construct: purified recombinant GST-ALK
Experiment: ELISA-based in vitro kinase assay with peptide substrate
Format: biochemical

T1 sequence (Q9UM73 19-1620): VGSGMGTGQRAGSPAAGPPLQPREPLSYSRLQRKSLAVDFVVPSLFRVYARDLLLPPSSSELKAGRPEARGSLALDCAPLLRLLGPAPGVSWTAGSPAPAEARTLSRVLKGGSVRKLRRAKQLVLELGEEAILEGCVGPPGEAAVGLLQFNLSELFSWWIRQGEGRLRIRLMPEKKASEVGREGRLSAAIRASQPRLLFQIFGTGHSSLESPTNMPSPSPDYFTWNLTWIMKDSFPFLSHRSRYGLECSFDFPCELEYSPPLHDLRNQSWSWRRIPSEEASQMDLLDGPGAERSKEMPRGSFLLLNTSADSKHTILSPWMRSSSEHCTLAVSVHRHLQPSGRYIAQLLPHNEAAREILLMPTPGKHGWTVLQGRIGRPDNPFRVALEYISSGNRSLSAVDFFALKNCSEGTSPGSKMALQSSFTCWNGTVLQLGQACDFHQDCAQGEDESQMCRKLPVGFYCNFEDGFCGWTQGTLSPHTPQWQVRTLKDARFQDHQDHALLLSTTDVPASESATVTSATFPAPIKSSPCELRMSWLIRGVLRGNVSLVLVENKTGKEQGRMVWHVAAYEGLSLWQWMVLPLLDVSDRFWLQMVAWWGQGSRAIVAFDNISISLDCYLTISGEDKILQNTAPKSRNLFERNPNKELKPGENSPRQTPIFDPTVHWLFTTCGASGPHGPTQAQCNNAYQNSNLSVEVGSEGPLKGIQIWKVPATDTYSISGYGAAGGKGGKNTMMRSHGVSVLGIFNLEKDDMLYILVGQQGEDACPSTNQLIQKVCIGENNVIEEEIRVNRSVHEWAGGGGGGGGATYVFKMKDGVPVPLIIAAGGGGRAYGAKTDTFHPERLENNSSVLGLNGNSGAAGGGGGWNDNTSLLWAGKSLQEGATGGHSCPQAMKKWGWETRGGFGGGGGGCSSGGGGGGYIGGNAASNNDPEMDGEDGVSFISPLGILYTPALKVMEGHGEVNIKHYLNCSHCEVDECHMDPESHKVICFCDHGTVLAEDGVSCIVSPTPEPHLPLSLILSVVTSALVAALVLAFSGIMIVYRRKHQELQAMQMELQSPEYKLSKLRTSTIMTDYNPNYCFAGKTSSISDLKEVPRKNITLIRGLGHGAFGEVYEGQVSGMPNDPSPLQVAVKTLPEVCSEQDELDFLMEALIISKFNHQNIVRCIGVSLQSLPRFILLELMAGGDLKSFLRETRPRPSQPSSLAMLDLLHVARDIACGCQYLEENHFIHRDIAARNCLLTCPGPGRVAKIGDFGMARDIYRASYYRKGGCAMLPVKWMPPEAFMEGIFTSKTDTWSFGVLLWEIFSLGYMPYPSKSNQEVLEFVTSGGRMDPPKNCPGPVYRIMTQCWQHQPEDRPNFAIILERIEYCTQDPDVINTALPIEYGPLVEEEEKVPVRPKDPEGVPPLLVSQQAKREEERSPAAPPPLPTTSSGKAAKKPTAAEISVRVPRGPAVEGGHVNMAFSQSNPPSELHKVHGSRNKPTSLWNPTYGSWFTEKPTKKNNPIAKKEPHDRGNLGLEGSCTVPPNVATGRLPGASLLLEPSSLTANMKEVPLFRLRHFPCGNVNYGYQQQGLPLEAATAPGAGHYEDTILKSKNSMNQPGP

## CC1(C)CCC(CN2CCN(c3ccc(C(=O)NS(=O)(=O)c4ccc(NCC5CCOCC5)c([N+](=O)[O-])c4)c(Oc4cnc5[nH]ccc5c4)c3)CC2)=C(c2ccc(Cl)cc2)C1 [ABT-199]
  IC50: 5.5 µM

Reference: publication PMC11750102, “Inhibition of the anti-apoptotic protein BCL2 in EML4-ALK cell models as a second proposed therapeutic target for non-small cell lung cancer” (PLOS ONE, 2025)
